# Like-named read-outs stand apart in the source and are kept apart here.
# Columns and labels:
# Glucocorticoid = experiment: Eurofins radioligand binding; parameters: species or system Human; details: specific binding
# Potassium Channel hERG = experiment: Eurofins radioligand binding; details: human, specific binding
# Tachykinin NK1 = experiment: Eurofins radioligand binding; parameters: species or system Human; details: specific binding
# GABAB1A = experiment: Eurofins radioligand binding; parameters: species or system Human; details: specific binding
# Sodium Channel, Site 2 = experiment: Eurofins radioligand binding; parameters: species or system Rat; details: specific binding
# Adrenergic α1D = experiment: Eurofins radioligand binding; parameters: species or system Human; details: specific binding
# hERG = tested on: T1, hERG; experiment: Ion channel current (Charles River Study 200609.WVN); format: cell-based; details: human, n 3
# T1 construct: Charles River
# From the text: Table S2. Effects of VU6007496 on Ion Channel Current (Charles River Study 200609.WVN)
# Ion Channel Conc Mean % Standard Standard n Individual Data
# (μM) Inhibition Deviation Error Points (% Inhibition)
# Interleukin IL-1 R1 = experiment: Eurofins radioligand binding; parameters: species or system Human; details: specific binding
# Calcium Channel N-Type = experiment: Eurofins radioligand binding; parameters: species or system Rat; details: specific binding
# [1] = Rat dose escalation study (p.o., 30% captisol); format: in vivo; details: for Cmax: brain, read-out: total brain concentration at Cmax
# Method: While awaiting more definitive MET ID studies in multispecies hepatocytes, we elected to perform a rat dose escalation study to assess exposures in a standard, tox-friendly oral vehicle (30% captisol) to lay the foundation for dose range finding/maximum tolerated dose (DRF/MTD) studies. Male Sprague–Dawley rats were dosed with VU6007496 (11) at doses of 3, 10, 30, 100, and 300 mg/kg p.o. in 30% captisol. […]. […] Recall, exposures in rat at the NOR MED were 990 nM total and 39.8 nM unbound brain concentrations, respectively. […]
# Adrenergic β2 = experiment: Eurofins radioligand binding; parameters: species or system Human; details: specific binding
# Potassium Channel [KATP] = experiment: Eurofins radioligand binding; parameters: species or system Hamster; details: specific binding
# Muscarinic M1 = experiment: Eurofins radioligand binding; parameters: species or system Human; details: specific binding
# [2] = tested on: Calcium Channel L-Type, Dihydropyridine; experiment: Eurofins radioligand binding; parameters: species or system Rat; details: specific binding
# Adrenergic α1A = experiment: Eurofins radioligand binding; parameters: species or system Human; details: specific binding
# Endothelin ETB = experiment: Eurofins radioligand binding; parameters: species or system Human; details: specific binding
# Transporter, GABA = experiment: Eurofins radioligand binding; parameters: species or system Rat; details: specific binding
# Adrenergic β1 = experiment: Eurofins radioligand binding; parameters: species or system Human; details: specific binding
# Thyroid Hormone = experiment: Eurofins radioligand binding; parameters: species or system Rat; details: specific binding
# Histamine H3 = experiment: Eurofins radioligand binding; parameters: species or system Human; details: specific binding
# Hepatocyte MET ID, human = format: in vitro ADME; details: 4-h incubation
# From the text: (§1) More concerning were the results generated via outsourced multispecies hepatocyte MET ID, which were drastically different than the liver S9MET ID. The extent of metabolism for VU6007496 with rat, dog, monkey and human hepatocytes was 64.7, 51.5, 63.9 and 99.5%, respectively (Figure 8). […] In human hepatocytes, PAM 11 was metabolized primarily to Metabolite A (24), the result of oxidative N-demethylation of the southern pyrazole. The other minor metabolites were oxidation on the tetrahydropyran moiety and included ring opening (Metabolite F, 25).[21]
# [3] = tested on: Transporter, Dopamine (DAT); experiment: Eurofins radioligand binding; parameters: species or system Human; details: specific binding
# GABAA, Muscimol, Central = experiment: Eurofins radioligand binding; parameters: species or system Rat; details: specific binding
# Muscarinic M3 = experiment: Eurofins radioligand binding; parameters: species or system Human; details: specific binding
# [4] = tested on: Epidermal Growth Factor (EGF); experiment: Eurofins radioligand binding; parameters: species or system Human; details: specific binding
# Glutamate, NMDA, Glycine = Glutamate, NMDA, Glycine (Rattus norvegicus, UniProt P35439); experiment: Eurofins radioligand binding; details: specific binding
# Glutamate, NMDA, Glycine, sequence (P35439 394-800 limits assumed): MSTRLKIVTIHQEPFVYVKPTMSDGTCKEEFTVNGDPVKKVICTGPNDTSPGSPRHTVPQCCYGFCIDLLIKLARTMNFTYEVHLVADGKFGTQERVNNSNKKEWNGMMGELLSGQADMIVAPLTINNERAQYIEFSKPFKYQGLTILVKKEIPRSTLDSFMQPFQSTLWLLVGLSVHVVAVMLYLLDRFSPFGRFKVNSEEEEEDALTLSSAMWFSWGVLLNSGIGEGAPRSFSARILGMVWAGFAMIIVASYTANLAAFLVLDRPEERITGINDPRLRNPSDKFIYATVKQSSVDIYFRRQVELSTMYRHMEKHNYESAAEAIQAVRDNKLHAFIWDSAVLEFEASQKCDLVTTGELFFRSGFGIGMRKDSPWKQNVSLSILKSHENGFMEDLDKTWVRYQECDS
# [5] = tested on: Calcium Channel L-Type, Benzothiazepine; experiment: Eurofins radioligand binding; parameters: species or system Rat; details: specific binding
# [6] = tested on: Transporter, Serotonin (SERT); experiment: Eurofins radioligand binding; parameters: species or system Human; details: specific binding
# Dopamine D2S = experiment: Eurofins radioligand binding; parameters: species or system Human; details: specific binding
# [7] = tested on: Leukotriene, Cysteinyl CysLT1; experiment: Eurofins radioligand binding; parameters: species or system Human; details: specific binding
# [8] = Hepatocyte MET ID, monkey; format: in vitro ADME; details: 4-h incubation
# From the text: as §1
# CYP1A2 = experiment: CYP induction (mRNA) in cryopreserved human hepatocytes, CYP1A2; format: in vitro ADME; details: three donors
# From the text: To advance 11 as a candidate and into IND-enabling studies, we next needed to better understand its CYP profile to minimize drug–drug interactions in the clinic. […] We were pleased to see the contribution of another CYP beyond 3A4 for the metabolism of 11.[21] In parallel, we investigated the ability of PAM 11 to induce the expression of CYP450s (measuring mRNA) in cryopreserved human hepatocytes from three separate donors.
# [9] = tested on: Nicotinic Acetylcholine α1, Bungarotoxin; experiment: Eurofins radioligand binding; parameters: species or system Human; details: specific binding
compound,measurement,setting,value
Cn1ccc(-c2ccc(Cc3cc(C(=O)NC4CCOCC4)nc4ccn(C)c34)cc2)n1 [compound 11],% Inhibition at 10 µM,Glucocorticoid,5%
same,inhibition at 10 µM,Potassium Channel hERG,11%
same,% Inhibition at 10 µM,Tachykinin NK1,8%
same,% Inhibition at 10 µM,GABAB1A,4%
same,% Inhibition at 10 µM,"Sodium Channel, Site 2",19%
same,% Inhibition at 10 µM,Adrenergic α1D,-6%
same,inhibition at 10 µM,hERG,2.6%
same,% Inhibition at 10 µM,Interleukin IL-1 R1,10%
same,% Inhibition at 10 µM,Calcium Channel N-Type,8%
same,Cmax,"[1]; male, Sprague-Dawley, po, rat, 100 mg/kg p.o.",9.1 µM
same,Cmax,"[1]; male, Sprague-Dawley, po, rat, 300 mg/kg p.o.",17.2 µM
same,Tmax,"[1]; male, Sprague-Dawley, in vivo, po, rat, 3, 10, 30, 100, and 300 mg/kg p.o., all doses",< 2 h
same,fold over the NOR MED exposure,"[1]; rat, 100 mg/kg p.o.",~9 fold
same,unbound brain concentration at Cmax,"[1]; rat, 100 mg/kg p.o.",0.298 µM
same,fold over the NOR MED exposure,"[1]; rat, 300 mg/kg p.o.",~17 fold
same,unbound brain concentration at Cmax,"[1]; rat, 300 mg/kg p.o.",0.569 µM
same,adverse cholinergic events,"[1]; rat, 100 and 300 mg/kg p.o. dose groups, after 4.5 h",severe adverse cholinergic events
same,dose proportionality of exposure,"[1]; rat, from 3 to 30 mg/kg p.o.",Linear dose escalation
same,cholinergic toxicity,"[1]; rats, 30 mg/kg p.o.",not observed
same,window from the MED,"[1]; rats, 30 mg/kg p.o. vs MED 3 mg/kg",10 fold
same,% Inhibition at 10 µM,Adrenergic β2,7%
same,% Inhibition at 10 µM,Potassium Channel [KATP],11%
same,% Inhibition at 10 µM,Muscarinic M1,-8%
same,% Inhibition at 10 µM,[2],-8%
same,% Inhibition at 10 µM,Adrenergic α1A,-1%
same,% Inhibition at 10 µM,Endothelin ETB,-5%
same,% Inhibition at 10 µM,"Transporter, GABA",-17%
same,% Inhibition at 10 µM,Adrenergic β1,-14%
same,% Inhibition at 10 µM,Thyroid Hormone,2%
same,% Inhibition at 10 µM,Histamine H3,-12%
same,"extent of metabolism, human hepatocytes","Hepatocyte MET ID, human",99.5%
same,% Inhibition at 10 µM,[3],13%
same,% Inhibition at 10 µM,"GABAA, Muscimol, Central",-1%
same,% Inhibition at 10 µM,Muscarinic M3,-4%
same,% Inhibition at 10 µM,[4],5%
same,inhibition at 10 µM,"Glutamate, NMDA, Glycine",0%
same,% Inhibition at 10 µM,[5],12%
same,% Inhibition at 10 µM,[6],-7%
same,% Inhibition at 10 µM,Dopamine D2S,5%
same,% Inhibition at 10 µM,[7],3%
same,"extent of metabolism, monkey hepatocytes",[8],63.9%
same,CYP1A2 induction (mRNA),CYP1A2,~3 fold
same,% Inhibition at 10 µM,[9],-3%
